Results from EP0729465B1, “PYRONE DERIVATIVES AS PROTEASE INHIBITORS AND ANTIVIRAL AGENTS” (PARKE, DAVIS & COMPANY, priority 1993, dated 1995).
Values after ≈ are worked out from the molar mass of the structure shown. Read-outs that look alike come from different tables or passages of the source.

Legend:
[1] = system: Staphylococcus aureus UC-76; assay: Antibacterial activity, microtitration dilution method (MIC); assay type: cell-based
Source text: (§1) The compounds of the invention display antibacterial activity when tested by the microtitration dilution method as described in Heifetz, et al., Antimicr. Agents. & Chemoth. 6:124 (1974) which is incorporated herein by reference.
(§2) By use of the above referenced method, the following minimum inhibitory concentration values (MICs in µg/mL) were obtained for representative compounds of the invention vs. clinically relevant gram positive pathogens which have become highly resistant to conventional therapy in recent years.

[2] = system: Streptococcus pneumonia 5V-1; assay: as above; assay type: cell-based
Source text: as §1, §2

[3] = system: Staphylococcus aureus H228; assay: as above; assay type: cell-based
Source text: as §1, §2

[4] = system: Enterococcus foecalis MGH2; assay: as above; assay type: cell-based
Source text: as §1, §2

[5] = system: Streptococcus pyogenes C203; assay: as above; assay type: cell-based
Source text: as §1, §2

HIV-1iiib = assay: Anti-HIV-1 activity, acute infection of H9 cells; assay type: cell-based; settings: Human immunodeficiency virus 1; H9 cell line infected with HIV-1iiib; reverse transcriptase assay at 4 and 7 days post infection; read-out: Concentration for 50% Protection
Method: Using the general methods of Pauwels et al., (J. Virol. Methods, 16, 171-185, 1987) and Mann et al. (AIDS Research and Human Retroviruses, 253-255, 1989) anti-viral assays of acute HIV-1 infection were performed in the H9 cell line. Cultures were batch infected in 1 ml of RPM1 1640 media/10% fetal calf serum containing 10^7 cells and 10^5 infectious doses of HIV-1iiib for an effective multiplicity of infection of 0.01. After 2 hours of viral absorption, cells were washed once and plated in 96-well microtiter plates at a density of 10^4 cells per well. Test compounds were added to produce the desired concentration of drug and 0.2% DMSO in a final volume of 200 µl. Uninfected parallel cultures were maintained for XTT cytotoxicity assay at 7 days post infection. Cultures were tested for viral replication by reverse transcriptase assay at 4 and 7 days post infection.

HIV-I Protease = target: T1, HIV-I Protease (Human immunodeficiency virus type 1 group M subtype B, UniProt P04585); assay: HIV protease inhibition (hydrolysis of undecapeptide substrate, HPLC readout); assay type: biochemical; settings: read-out: 50% Inhibition Concentration (Averaged)
T1 construct: HIV-I Protease: The enzyme is obtained from Bachem Bioscience Inc; purchased Bachem Bioscience Inc
Method: • DTT Buffer: 1.0 mM dithiothreitol (DTT) was prepared fresh daily in 0.1% polyethylene glycol (mw 8000) 80 mM NaOAc, 160 mM NaCl, 1.0 mM EDTA, and brought to pH 4.7 with HCl. • HIV-I Protease: The enzyme is obtained from Bachem Bioscience Inc. The undiluted enzyme is thawed from -80 °C and diluted 50-fold with DTT buffer. The solution is always kept at 0 °C on ice water and used in the experiment within 20 minutes after thawing. • Enzyme Substrate: Substrate III from Bachem Bioscience Inc. is the undecapeptide H-His-Lys-Ala-Arg-Val-Leu-p-Nitrophenylalanine-Glu-Ala-Norleucine-ser-NH2 (> 97 % purity). A 200. µM stock solution in DTT buffer is prepared and stored on ice. Substrate solution is prepared fresh daily. • Test Compound: 10 mM inhibitor (I) in dimethyl sulfoxide (DMSO) is diluted to 200 µM with DTT buffer. From the 200 µM stock solution is made a 10 µM stock solution with 2% DMSO in DTT buffer. The two inhibitor solutions are used to make final [I] = 100, 50, 20, 10, 5, 2, 1, 0.5 and 0 µM with 2% DMSO in DTT buffer in each reaction well (total inhibitor volume of 50 µl).
To each reaction well is added 20 µl of substrate (final concentration of 40 µM), 50 µl of inhibitor (at a concentration such that final dilution will produce the test concentration) and 20 µl of DTT buffer. The reaction plate (96 wells) is incubated at 37 °C for at least 5 minutes.
10 µl of the diluted protease is added to the reaction well while the reaction plate is shaking. Once shaken for 10 seconds, the plate is returned to the heating block at 37 °C. (Final reaction volume = 100 µl.)
The reaction is incubated for 5 minutes at 37 °C. The reaction is stopped by placing the reaction plate on the shaker and adding 20 µl of 10% trifluoroacetic acid (TFA) and shaking for 10 seconds. The amount of proteolysis is then determined by separation of noncleaved substrate and two cleaved products with reverse-phase HPLC, while measuring absorbance at 220 nm to determine the relative peak areas of the three components. The relative peak areas are used to calculate % conversion to product as a function of inhibitor concentration. The data is plotted as % Control (the ratio of % conversion in the presence and absence of inhibitor x 100) versus inhibitor concentration and fit with the equation Y= 100/1+(X/IC50)^A, where IC50 is the inhibitor concentration at 50% inhibition and A is the slope of the inhibition curve.

[6] = read-out: minimum inhibitory concentration (MIC)
[7] = 40 µM substrate, pH 4.7, 37 °C, 5 minutes

Question: Which results are given for “3-[1-(Cyclohexylthio)-3-methylbutyl]-4-hydroxy-6-phenyl-2H-pyran-2-one [Example 128]”?
Answer: minimum inhibitory concentration (MIC) [1]: 12.5 µg/mL; minimum inhibitory concentration (MIC) [2]: 25 µg/mL; minimum inhibitory concentration (MIC) [3]: 12.5 µg/mL; minimum inhibitory concentration (MIC) [4]: 25 µg/mL; minimum inhibitory concentration (MIC) [5]: 25 µg/mL

Question: For `CC(C)(C)CC(SC1CCCCC1)c1c(O)cc(-c2ccccc2)oc1=O` (racemic) [Example 92, 3-[1-(Cyclohexylthio)-3,3-dimethylbutyl]-4-hydroxy-6-phenyl-2H-pyran-2-one], which MIC ([1]; UC76, read-out: minimum inhibitory concentration (MIC)) is on record?
Answer: 25 µg/mL (≈ 64.7 µM)

Question: What about the MIC ([2]; Streptococcus pneumoniae, 5V1, read-out: minimum inhibitory concentration (MIC)) of the same compound?
Answer: 50 µg/mL (≈ 129 µM)

Question: What about the MIC [3, 6] of the same compound?
Answer: 25 µg/mL (≈ 64.7 µM)

Question: And the MIC [4, 6]?
Answer: 100 µg/mL (≈ 259 µM)

Question: What about the MIC [5, 6] of the same compound?
Answer: 50 µg/mL (≈ 129 µM)

Question: For `O=c1oc(-c2ccc(OCc3cccnc3)cc2)cc(O)c1SCCc1ccccc1` [Example 64, 4-Hydroxy-3-[(2-phenylethyl)thio]-6-[4-(3-pyridinylmethoxy)phenyl]-2H-pyran-2-one], which EC50 (HIV-1iiib) is on record?
Answer: 3000 nM

Question: What about the IC50 (HIV-I Protease; [7]) of the same compound?
Answer: 1500 nM

Question: Which results are given for `O=c1oc(-c2ccc3c(c2)OCCO3)cc(O)c1SCc1ccccc1` [Example 107, 6-(2,3-Dihydro-1,4-benzodioxin-6-yl)-4-hydroxy-3-[(phenylmethyl)thio]-2H-pyran-2-one]?
Answer: EC50 (HIV-1iiib): 15000 nM; IC50 (HIV-I Protease): 480 nM

Question: Which results are given for `CC(C)c1ccccc1Sc1c(O)cc(-c2ccc(OCc3cccnc3)cc2)oc1=O` [Example 157, 4-Hydroxy-3-[(2-isopropylphenyl)thio]-6-[4-(pyridin-3-ylmethoxy)phenyl]-2H-pyran-2-one]?
Answer: EC50 (HIV-1iiib): 650 nM; IC50 (HIV-I Protease; [7]): 68 nM
